Tests used:
67LR = 67LR level in membrane and cytoplasm of A549 cells (Western blotting, flow cytometry); assay type: cell-based; conditions: membrane fraction, FIG. 13
Description: In FIG. 13, A549 cells were transfected with si-control or si-KRS and incubated in the absence and presence of laminin. The cells were then separated to cytoplasm and membrane fractions, and the levels of 67LR and KRS in each fraction were determined by Western blotting. Cadherin (cad) and hsp90 were used as the markers for plasma membrane and cytoplasm, respectively. In FIG. 14, the membrane-bound 67LR level in A549 cells was monitored by flow cytometry using anti-LR antibody (MLuC5). The cells were transfected with empty vector or KRS plasmid and incubated for 24 h (upper). […] In FIG. 15, A549 cells transfected with EV or KRS was selected with G418 for a week and cellular distribution of 67LR was determined by immunofluorescence staining with anti-LR antibody (MLuC5). […] In FIG. 16, A549 cells were treated with cycloheximide to inhibit de novo protein synthesis and the effect of KRS levels on 67LR level in membrane and cytoplasm was determined by Western blotting. In FIG. 17, the importance of KRS for cellular stability of 67LR was determined by pulse-chase experiment. […]
To address cell cycle, the cultivated cells were transfected or treated with the indicated vector or chemicals, fixed with 70% ethanol for 1 hr at 4° C. and washed with ice-cold PBS two times. […] For each sample, 20,000 cells were analyzed using Cell Quest Pro software. […]

KRS and EPRS = assay: Co-immunoprecipitation of KRS with EPRS (multi-ARS complex); assay type: cell-based; conditions: A549 cells; absence of LY compound; FIG. 12
Description: In FIG. 7, A549 cells were treated with laminin (10 ug/ml) and the level of 67LR, 37LRP and KRS was determined by Western blotting at the indicated times. Hsp90 and Cadherin were used as markers for cytoplasm and membrane, respectively. In FIG. 8, A549 cells untreated or treated with laminin for 1 h were subjected to immunofluorescence staining with anti-67LR (MLuC5, Santacruz, sc-59732) (red) and -KRS antibodies (green). In FIG. 9, A549 cells were treated with U73122 (U), staurosporin (ST) and LY294002 (LY) that inhibit PLC-gamma, PKC and PI3K, respectively, for 3 hr, then with laminin for 1 hr and checked how these kinase inhibitors would affect the membrane and cytoplasmic level of 67LR and KRS. In FIG. 10, A549 cells were transfected with Myc-KRS and incubated for 24 h. The cells were treated with the indicated chemicals and then with laminin as above. Myc-KRS was immunoprecipitated, and immunoblotted with anti-p-Thr, -Ser, and -Tyr antibodies. In FIG. 11, A549 cells were transfected with Myc-KRS and cultivated for 24 hr. The transfectants were pre-treated with LY294002 for 3 hr and then treated with laminin for 1 h. Myc-KRS was immunoprecipitated and co-precipitation of 67LR was determined by Western blotting. […] EPRS (glutamyl-prolyl-tRNA synthetase) was immunoprecipitated with its specific antibody (AbCam), and co-immunoprecipitation of KRS was determined by Western blotting (upper). […]

laminin: laminin (Engelbreth-Holm-Swarm murine sarcoma) from Sigma
67LR level (67LR): increased
association of KRS with EPRS (KRS and EPRS): decreased

From US10139394B2, “Method for controlling cancer metastasis or cancer cell migration by modulating the cellular level of lysyl tRNA synthetase” (Medicinal Bioconvergence Research Center, priority 2008, dated 2018)
